Tests used:
Assay in all cases: relative viability (nuclei count vs DMSO), 5 days (fraction); higher = more cells survive
Erlotinib = compound: C#Cc1cccc(Nc2ncnc3cc(OCCOC)c(OCCOC)cc23)c1 [Erlotinib]
In short: (§1)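 After an overnight hold at 37 °C, lung cancer cell lines in 1536-well plates were pinned with five library-drug doses (not always all listed), each √10 from the next, on vehicle-anchored plates. The cells stayed 5 days without fresh medium, then a one-step fix, permeabilisation and Hoechst stain preceded 4× imaging and MetaXpress nuclear counts. A plate passed only with control CV under 25% and at least one doubling. Viability is the median, over plates, of treated-well nuclei relative to vehicle-well nuclei.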

Phenformin = compound: N=C(N)NC(=N)NCCc1ccccc1 [Phenformin] (anchor plate); conditions: 250 µM
In short: as §1

AT9283 = compound: O=C(Nc1c[nH]nc1-c1nc2ccc(CN3CCOCC3)cc2[nH]1)NC1CC1 [AT9283]
In short: as §1

Cell Line | relative viability (Erlotinib; 0.02 µM) | relative viability (Erlotinib; 0.2 µM) | relative viability (Erlotinib; 0.6325 µM) | relative viability (Erlotinib; 2 µM) | relative viability (Phenformin) | relative viability (AT9283; 0.003 µM) | relative viability (AT9283; 0.03 µM) | relative viability (AT9283; 0.09487 µM) | relative viability (AT9283; 0.3 µM)
201T | 0.963 | 0.957 | 0.946 | 0.865 | 0.45 | 0.909 | 0.97 | 0.537 | 0.361
A549 | 0.918 | 0.936 | 0.963 | 0.879 | 0.165 | 0.917 | 0.458 | 0.125 | 0.0647
A-427 | 1.03 | 0.957 | 1.08 | 1.01 | 0.323 | 0.929 | 0.453 | 0.264 | 0.242
ABC-1 | 0.827 | 0.881 | 1.01 | 0.81 | 0.25 | 0.831 | 0.301 | 0.3 | 0.235
BEN | 0.927 | 0.954 | 1.19 | 0.961 | 0.263 | 0.874 | 0.965 | 0.23 | 0.278
CAL-12T | 1 | 0.785 | 0.618 | 0.521 | 0.597 | 1.06 | 0.828 | 0.451 | 0.227
COR-L23 | 1.09 | 1.04 | 1.22 | 0.894 | 0.43 | 1.05 | 0.592 | 0.206 | 0.183
COR-L 105 | 0.931 | 0.515 | 0.4 | 0.334 | 0.551 | 0.983 | 0.4 | 0.334 | 0.334
Calu-6 | 1.01 | 0.986 | 1.01 | 0.907 | – | 1.01 | 0.299 | 0.246 | 0.273
ChaGo-K-1 | 0.977 | 1.05 | 1.04 | 0.903 | 0.514 | 0.849 | 0.91 | 0.451 | 0.396
EBC-1 | 0.977 | 0.988 | 0.978 | 0.897 | – | 0.969 | 0.289 | 0.164 | 0.165
EKVX | 0.962 | 0.587 | 0.43 | 0.215 | 0.231 | 0.915 | 0.858 | 0.629 | 0.324
EMC-BAC-2 | 0.743 | 1.04 | 1.1 | 0.979 | 0.558 | 0.907 | 0.463 | 0.319 | 0.221
EPLC-272H | 1.06 | 0.882 | 1.02 | 0.724 | 0.321 | 0.886 | 0.81 | 0.203 | 0.156
